This assay deals with human PD-L1 (Homo sapiens (Human), UniProt Q9NZQ7). The assay is described as follows: T cell activation luciferase reporter cell culture system (T Cell Activation Assay). The format is cell-based. The conditions noted are these: luciferase reporter assay; PD-L1 aAPC/CHO-K1 cells with PD-1 effector Jurkat T cells. In general terms: In a reporter assay the amount or activity of a reporter protein is the signal.
human PD-L1, sequence (Q9NZQ7 19-290): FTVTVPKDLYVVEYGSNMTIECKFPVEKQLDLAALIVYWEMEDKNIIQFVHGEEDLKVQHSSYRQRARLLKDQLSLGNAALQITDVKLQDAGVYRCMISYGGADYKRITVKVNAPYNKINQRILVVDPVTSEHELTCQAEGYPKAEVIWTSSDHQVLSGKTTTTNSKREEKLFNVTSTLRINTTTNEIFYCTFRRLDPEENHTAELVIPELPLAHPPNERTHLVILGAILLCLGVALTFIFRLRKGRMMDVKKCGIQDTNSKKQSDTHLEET

On to `COc1nc(-c2cccc(-c3ccnc(-c4cc(OC)c5nc(CN6CC7(CNC(=O)C7)C6)nn5c4)c3Cl)c2Cl)ccc1CNC1CCN(C(C)=O)CC1` [Example 659, 2-((6-(4-(3-(5-(((1-Acetylpiperidin-4-yl)amino)methyl)-6-methoxypyridin-2-yl)-2-chlorophenyl)-3-chloropyridin-2-yl)-8-methoxy-[1,2,4]triazolo[1,5-a]pyridin-2-yl)methyl)-2,6-diazaspiro[3.4]octan-7-one], for which a half-maximal effect (EC50) was put at 82.2 nM.

On to `COc1nc(-c2cccc(-c3ccnc(-c4cc5c(OC)nc(CNCCO)nn5c4)c3Cl)c2Cl)ccc1CNC1CCN(C(C)=O)CC1` [Example 661, 1-(4-(((6-(2-Chloro-3-(3-chloro-2-(2-(((2-hydroxyethyl)amino)methyl)-4-methoxypyrrolo[2,1-f][1,2,4]triazin-6-yl)pyridin-4-yl)phenyl)-2-methoxypyridin-3-yl)methyl)amino)piperidin-1-yl)ethan-1-one], for which a half-maximal response (EC50) required 820 nM. Take `COc1nc(-c2cccc(-c3ccnc(-c4ccc(CN5CC6(C5)CN(C(C)=O)C6)c(OC(F)F)c4)c3Cl)c2Cl)ccc1CNC1CCOCC1` [Example 663, 1-(6-(4-(3-Chloro-4-(2-chloro-3-(6-methoxy-5-(((tetrahydro-2H-pyran-4-yl)amino)methyl)pyridin-2-yl)phenyl)pyridin-2-yl)-2-(difluoromethoxy)benzyl)-2,6-diazaspiro[3.3]heptan-2-yl)ethan-1-one]: the EC50 (as a rule, the concentration that produces a half-maximal response) is 39.9 nM. The result for `COc1nc(-c2cccc(-c3ccnc(-c4ccc(CN5CC6(C5)CN(C(C)=O)C6)c(OC(F)F)c4)c3Cl)c2Cl)ccc1CNC1CCN(C(C)=O)CC1` [Example 664, 1-(4-(((6-(3-(2-(4-((6-Acetyl-2,6-diazaspiro[3.3]heptan-2-yl)methyl)-3-(difluoromethoxy)phenyl)-3-chloropyridin-4-yl)-2-chlorophenyl)-2-methoxypyridin-3-yl)methyl)amino)piperidin-1-yl)ethan-1-one] reads 32.4 nM; that for `COc1nc(-c2ccnc(-c3cccc4c3CC[C@@H]4Nc3nc(OC)c(CNC[C@@H]4CCC(=O)N4)cc3C(F)(F)F)c2Cl)ccc1CNC1CCOCC1` [Example 666, (S)-5-((((6-(((S)-4-(3′-Chloro-6-methoxy-5-(((tetrahydro-2H-pyran-4-yl)amino)methyl)-[2,4′-bipyridin]-2′-yl)-2,3-dihydro-1H-inden-1-yl)amino)-2-methoxy-5-(trifluoromethyl)pyridin-3-yl)methyl)amino)methyl)pyrrolidin-2-one], 114 nM; that for `COc1cc(-c2nccc(-c3cccc(-c4ccc(CN5CC6(C5)CN(C(=O)CO)C6)c(OC)n4)c3Cl)c2Cl)ccc1CN1CC2(C1)CN(C(=O)CO)C2` [Example 667, 1-(6-((6-(2-Chloro-3-(3-chloro-2-(4-((6-(2-hydroxyacetyl)-2,6-diazaspiro[3.3]heptan-2-yl)methyl)-3-methoxyphenyl)pyridin-4-yl)phenyl)-2-methoxypyridin-3-yl)methyl)-2,6-diazaspiro[3.3]heptan-2-yl)-2-hydroxyethan-1-one], 66.1 nM.

`COc1cc(-c2nccc(-c3nccc(-c4ccc(CNC5CCN(C(C)=O)CC5)c(OC)n4)c3Cl)c2Cl)ccc1CNC1CCN(C(C)=O)CC1` [Example 668, 1-(4-((4-(5-(((1-acetylpiperidin-4-yl)amino)methyl)-3′,3″-dichloro-6-methoxy-[2,4′:2′,4″-terpyridin]-2″-yl)-2-methoxybenzyl)amino)piperidin-1-yl)ethan-1-one] displayed an EC50 of 244 nM. The compound `COc1cc(-c2nccc(-c3cccc(-c4ccc(CN5CC6(CCN(CCO)C6)C5)c(OC)n4)c3Cl)c2Cl)ccc1CN1CC2(CCN(CCO)C2)C1` [Example 670, 2-(2-((6-(2-Chloro-3-(3-chloro-2-(4-((6-(2-hydroxyethyl)-2,6-diazaspiro [3.4]octan-2-yl)methyl)-3-methoxyphenyl)pyridin-4-yl)phenyl)-2-methoxypyridin-3-yl)methyl)-2,6-diazaspiro[3.4]octan-6-yl)ethan-1-ol] displayed an EC50 of 62.2 nM. Compared with the last compound, the EC50 is about 3.9-fold lower. `COc1cc(-c2nccc(-c3cccc(-c4ccc(CN5CC6(CCN(C(C)=O)C6)C5)c(OC)n4)c3Cl)c2Cl)ccc1CN1CC2(CCN(C(C)=O)C2)C1` [Example 671, 1-(2-((6-(3-(2-(4-((6-Acetyl-2,6-diazaspiro[3.4]octan-2-yl)methyl)-3-methoxyphenyl)-3-chloropyridin-4-yl)-2-chlorophenyl)-2-methoxypyridin-3-yl)methyl)-2,6-diazaspiro[3.4]octan-6-yl)ethan-1-one] had an EC50 of 29.6 nM. For `COc1cc(-c2nccc(-c3cccc(NC(=O)c4ccc(CN5CC6(CNC(=O)C6)C5)cn4)c3Cl)c2Cl)ccc1CN1CC2(CNC(=O)C2)C1` [Example 672, N-(2-Chloro-3-(3-chloro-2-(3-methoxy-4-((7-oxo-2,6-diazaspiro[3.4]octan-2-yl)methyl)phenyl)pyridin-4-yl)phenyl)-5-((7-oxo-2,6-diazaspiro[3.4]octan-2-yl)methyl)picolinamide], the EC50 was 217 nM. Compared with the last compound, the EC50 is about 7.3-fold higher. `COc1cc(-c2nccc(-c3cccc(NC(=O)c4ccc(CNC5CCN(C(C)=O)CC5)cn4)c3Cl)c2Cl)ccc1CNC1CCN(C(C)=O)CC1` [Example 673, 5-(((1-Acetylpiperidin-4-yl)amino)methyl)-N-(3-(2-(4-(((1-acetylpiperidin-4-yl)amino)methyl)-3-methoxyphenyl)-3-chloropyridin-4-yl)-2-chlorophenyl)picolinamide] gave an EC50 of 234 nM. The EC50 values of the last two compounds are within 1.5-fold of each other. For `COc1cc(-c2nccc(-c3cccc(NC(=O)c4ccc(CNC5CCOCC5)cn4)c3Cl)c2Cl)ccc1CNC1CCOCC1` [Example 674, N-(2-Chloro-3-(3-chloro-2-(3-methoxy-4-(((tetrahydro-2H-pyran-4-yl)amino)methyl)phenyl)pyridin-4-yl)phenyl)-5-(((tetrahydro-2H-pyran-4-yl)amino)methyl)picolinamide], the EC50 amounted to 337 nM. Compound `COc1nc(-c2cccc(-c3ccnc(-c4ccc(CNC5CCN(C(C)=O)CC5)c(OC(F)F)c4)c3Cl)c2Cl)ccc1CN1CC2(C1)CN(C(C)=O)C2` [Example 690, 1-(4-((4-(4-(3-(5-((6-Acetyl-2,6-diazaspiro[3.3]heptan-2-yl)methyl)-6-methoxypyridin-2-yl)-2-chlorophenyl)-3-chloropyridin-2-yl)-2-(difluoromethoxy)benzyl)amino)piperidin-1-yl)ethan-1-one] registered a half-maximal effective concentration (EC50) of 42.2 nM. `COCC(=O)N1CC2(CN(Cc3ccc(-c4cccc(-c5ccnc(-c6ccc(CN7CC8(C7)CN(C(C)=O)C8)c(OC)c6)c5Cl)c4Cl)nc3OC)C2)C1` [Example 691, 1-(6-((6-(3-(2-(4-((6-Acetyl-2,6-diazaspiro[3.3]heptan-2-yl)methyl)-3-methoxyphenyl)-3-chloropyridin-4-yl)-2-chlorophenyl)-2-methoxypyridin-3-yl)methyl)-2,6-diazaspiro[3.3]heptan-2-yl)-2-methoxyethan-1-one]: the EC50 amounted to 67.6 nM. On to `COc1cc(-c2nccc(-c3cccc(-c4ccc(CN5CC6(CCN(C(C)=O)C6)C5)c(OC)n4)c3Cl)c2Cl)ccc1CN1CCC(O)CC1` [Example 692, 1-(2-((6-(2-Chloro-3-(3-chloro-2-(4-((4-hydroxypiperidin-1-yl)methyl)-3-methoxyphenyl)pyridin-4-yl)phenyl)-2-methoxypyridin-3-yl)methyl)-2,6-diazaspiro[3.4]octan-6-yl)ethan-1-one], for which the EC50 came out at 43.5 nM. For `CNCc1ccc(C(=O)Nc2cccc(-c3ccnc(-c4ccc(CNC)c(OC)c4)c3Cl)c2Cl)nc1` [Example 694, N-(2-chloro-3-(3-chloro-2-(3-methoxy-4-((methylamino)methyl)phenyl)pyridine-4-yl)phenyl)-5-((methylamino)methyl)picolinamide] the value was 69.7 nM; for `COc1cc(-c2nccc(-c3cccc(NC(=O)c4ccc(CNC5CC6(COC6)C5)cn4)c3Cl)c2Cl)ccc1CNC1CC2(COC2)C1` (stereo not shown) [Example 695, 5-(((2-Oxaspiro[3.3]heptan-6-yl)amino)methyl)-N-(3-(2-(4-(((2-oxaspiro[3.3]heptan-6-yl)amino)methyl)-3-methoxyphenyl)-3-chloropyridin-4-yl)-2-chlorophenyl)picolinamide], 169 nM. For `CNCc1ccc(C(=O)Nc2cccc(-c3ccnc(-c4ccc(CNC)c(OC)c4)c3Cl)c2C)nc1` [Example 696, N-(3-(3-Chloro-2-(3-methoxy-4-((methylamino)methyl)phenyl)pyridin-4-yl)-2-methylphenyl)-5-((methylamino)methyl)picolinamide], the EC50 came to 244 nM. In the case of `COc1nc(-c2cccc(-c3ccnc(-c4cc(OC)c5nc(CNCC6(O)CC6)nn5c4)c3Cl)c2Cl)ccc1CNC1CCN(C(C)=O)CC1` [Example 699, 1-(4-(((6-(2-chloro-3-(3-chloro-2-(2-((((1-hydroxycyclopropyl)methyl)amino)methyl)-8-methoxy-[1,2,4]triazolo[1,5-a]pyridin-6-yl)pyridin-4-yl)phenyl)-2-methoxypyridin-3-yl)methyl)amino)piperidin-1-yl)ethan-1-one], it took 51.5 nM to reach a half-maximal effect (EC50). In turn, `COc1cc(-c2nccc(-c3cccc(NC(=O)c4ccc(CNCCO)cn4)c3C)c2Cl)ccc1CNC1CCN(C(C)=O)CC1` [Example 700, N-(3-(2-(4-(((1-Acetylpiperidin-4-yl)amino)methyl)-3-methoxyphenyl)-3-chloropyridin-4-yl)-2-methylphenyl)-5-(((2-hydroxyethyl)amino)methyl)picolinamide] yielded an EC50 of 124 nM. The compound `COc1cc(-c2nccc(-c3cccc(NC(=O)c4ccc(CN5CC6(COC6)C5)cn4)c3Cl)c2Cl)ccc1CN1CC2(COC2)C1` [Example 701, 5-((2-Oxa-6-azaspiro[3.3]heptan-6-yl)methyl)-N-(3-(2-(4-((2-oxa-6-azaspiro[3.3]heptan-6-yl)methyl)-3-methoxyphenyl)-3-chloropyridin-4-yl)-2-chlorophenyl)picolinamide] showed an EC50 of 410 nM. In turn, `COc1cc(-c2nccc(-c3cccc(NC(=O)c4ccc(CNCCCF)cn4)c3Cl)c2Cl)ccc1CNCCCF` [Example 702, N-(2-Chloro-3-(3-chloro-2-(4-(((3-fluoropropyl)amino)methyl)-3-methoxyphenyl)pyridin-4-yl)phenyl)-5-(((3-fluoropropyl)amino)methyl)picolinamide] gave an EC50 of 266 nM.

(Values after patent publication US20240246964A1 (Arbutus Biopharma Corporation, priority 2021, published 2024).)
